The supplement of paper PMC10307832

compound: CC(C)C[C@H](NC(=O)[C@H](CCc1ccccc1)NC(=O)CN1CCOCC1)C(=O)N[C@@H](Cc1ccccc1)C(=O)N[C@@H](CC(C)C)C(=O)[C@@]1(C)CO1 [Carfilzomib] + Nc1nc2[nH]cc(CCc3ccc(C(=O)N[C@@H](CCC(=O)O)C(=O)O)cc3)c2c(=O)[nH]1 [Pemetrexed] (partner 0.2 µM); assay: relative viability (nuclei count vs DMSO), 5 days (fraction); higher = more cells survive; details: first compound 0.003162 µM
Procedure, shortened: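 Relative viability was taken as the ratio of nuclei in treated wells to nuclei in vehicle wells. Lung cancer cell lines in 1536-well plates received compounds by pin tool one day after seeding, either one drug alone or a fixed anchor-drug dose plus five library-drug doses (not always all listed) in √10 steps. Nuclei were counted on 4× images after 5 days of treatment, and values are medians of duplicate plates.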

How did the relative viability turn out when NCI-H1650 was run?
The relative viability was 0.403.

How did the relative viability turn out when NCI-H2170 was run?
The relative viability was 0.277.

NCI-H2228 was tested. Which relative viability did it give?
Its relative viability is 0.364.

For NCI-H2342, which relative viability is on record?
The relative viability was 0.786.

For SW 900, which relative viability is on record?
The relative viability was 0.497.

same assay, conditions: first compound 0.01 µM

How did the relative viability turn out when 201T was run?
Its relative viability is 0.337.

A-427 was tested. Which relative viability did it give?
Its relative viability is 0.983.

BEN was tested. Which relative viability did it give?
The relative viability was 0.787.

With CAL-12T as the cell line, how does the relative viability read?
The relative viability was 1.15.

For COR-L23, which relative viability is on record?
The relative viability was 0.185.

Which relative viability does the source give for COR-L 105 here?
Its relative viability is 1.19.

For ChaGo-K-1, which relative viability is on record?
Its relative viability is 0.258.

Which relative viability does the source give for EKVX here?
The relative viability was 0.489.

For EMC-BAC-2, which relative viability is on record?
The relative viability was 0.46.

EPLC-272H was tested. Which relative viability did it give?
The relative viability was 0.46.

Which relative viability does the source give for H3255 here?
The relative viability was 0.578.

How did the relative viability turn out when HARA was run?
Its relative viability is 0.252.

For HCC-15, which relative viability is on record?
Its relative viability is 0.238.

How did the relative viability turn out when HCC-44 was run?
The relative viability was 0.658.

For HCC-78, which relative viability is on record?
The relative viability was 0.904.

How did the relative viability turn out when HCC-366 was run?
Its relative viability is 0.2.

HCC-827 was tested. Which relative viability did it give?
The relative viability was 0.277.

How did the relative viability turn out when HOP-62 was run?
The relative viability was 0.417.

LC-2-ad was tested. Which relative viability did it give?
Its relative viability is 0.28.

For LCLC-97TM1, which relative viability is on record?
The relative viability was 0.173.

For LCLC-103H, which relative viability is on record?
The relative viability was 0.529.

How did the relative viability turn out when LK-2 was run?
The relative viability was 0.273.

How did the relative viability turn out when LOU-NH91 was run?
Its relative viability is 0.471.

How did the relative viability turn out when LU99A was run?
The relative viability was 0.18.

With LXF-289 as the cell line, how does the relative viability read?
The relative viability was 0.909.

NCI-H522 was tested. Which relative viability did it give?
Its relative viability is 0.963.

Which relative viability does the source give for NCI-H1563 here?
The relative viability was 0.727.

With NCI-H1648 as the cell line, how does the relative viability read?
Its relative viability is 0.805.

NCI-H1650 was tested. Which relative viability did it give?
The relative viability was 0.312.

How did the relative viability turn out when NCI-H2170 was run?
The relative viability was 0.254.

Which relative viability does the source give for NCI-H2228 here?
Its relative viability is 0.361.

Which relative viability does the source give for NCI-H2342 here?
Its relative viability is 0.853.

For SW 900, which relative viability is on record?
The relative viability was 0.176.

same assay, conditions: first compound 0.03162 µM

201T was tested. Which relative viability did it give?
Its relative viability is 0.351.

Which relative viability does the source give for A-427 here?
Its relative viability is 0.842.

For BEN, which relative viability is on record?
The relative viability was 0.599.

CAL-12T was tested. Which relative viability did it give?
The relative viability was 0.832.

How did the relative viability turn out when COR-L23 was run?
Its relative viability is 0.123.

Which relative viability does the source give for COR-L 105 here?
The relative viability was 0.469.

With ChaGo-K-1 as the cell line, how does the relative viability read?
The relative viability was 0.262.

EMC-BAC-2 was tested. Which relative viability did it give?
Its relative viability is 0.434.

How did the relative viability turn out when EPLC-272H was run?
The relative viability was 0.114.

For H3255, which relative viability is on record?
Its relative viability is 0.423.

How did the relative viability turn out when HARA was run?
The relative viability was 0.0877.

Which relative viability does the source give for HCC-15 here?
Its relative viability is 0.224.

How did the relative viability turn out when HCC-44 was run?
Its relative viability is 0.705.

HCC-78 was tested. Which relative viability did it give?
The relative viability was 0.967.

For HCC-366, which relative viability is on record?
Its relative viability is 0.17.

HCC-827 was tested. Which relative viability did it give?
The relative viability was 0.254.

For HOP-62, which relative viability is on record?
Its relative viability is 0.0823.

With LC-2-ad as the cell line, how does the relative viability read?
Its relative viability is 0.273.

LCLC-97TM1 was tested. Which relative viability did it give?
Its relative viability is 0.167.

How did the relative viability turn out when LCLC-103H was run?
Its relative viability is 0.446.

For LK-2, which relative viability is on record?
Its relative viability is 0.0987.

For LOU-NH91, which relative viability is on record?
Its relative viability is 0.314.

With LU99A as the cell line, how does the relative viability read?
Its relative viability is 0.214.

With LXF-289 as the cell line, how does the relative viability read?
Its relative viability is 0.108.

Which relative viability does the source give for NCI-H522 here?
The relative viability was 0.717.

NCI-H1563 was tested. Which relative viability did it give?
The relative viability was 0.82.

With NCI-H1648 as the cell line, how does the relative viability read?
The relative viability was 0.416.

Which relative viability does the source give for NCI-H1650 here?
Its relative viability is 0.154.

NCI-H2170 was tested. Which relative viability did it give?
Its relative viability is 0.24.

How did the relative viability turn out when NCI-H2228 was run?
The relative viability was 0.0862.

With NCI-H2342 as the cell line, how does the relative viability read?
Its relative viability is 0.78.

For SW 900, which relative viability is on record?
Its relative viability is 0.152.

same assay, conditions: first compound 0.1 µM

201T was tested. Which relative viability did it give?
The relative viability was 0.312.

How did the relative viability turn out when A-427 was run?
Its relative viability is 0.183.

With BEN as the cell line, how does the relative viability read?
The relative viability was 0.352.

Which relative viability does the source give for CAL-12T here?
Its relative viability is 0.168.

For COR-L23, which relative viability is on record?
The relative viability was 0.0834.

With COR-L 105 as the cell line, how does the relative viability read?
The relative viability was 0.317.

Which relative viability does the source give for ChaGo-K-1 here?
Its relative viability is 0.179.

For EKVX, which relative viability is on record?
Its relative viability is 0.371.
